Test results as given in PMC7450057, “Enhancing intracellular accumulation and target engagement of PROTACs with reversible covalent chemistry” (Nature Communications, 2020).
Several values for one entry are separate records, joined by “and”; a condition that tells them apart may be missing. Equal values may be shown once. Entries after “also recorded” stand apart in the source; their conditions may differ.

How the values were obtained:
Mino cells = assay: AlamarBlue cell viability assay, Mino; type: cell-based; details: for Mino Cell Viability%: Figure 2f, 5 replicates
Protocol: The IC50 was calculated using GraphPad Prism software with a four-parameter dose-response curve fit.

NanoLuc-CRBN fusion = biological target: T1, NanoLuc-CRBN fusion (Homo sapiens, UniProt Q96SW2); assay: NanoBRET CRBN in-cell target engagement assay; type: cell-based; details: for NanoBRET(%): Figure 3b
T1 construct: host or cells: HEK 293T/17
Summary of the method: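 Live cells expressing NanoLuc-CRBN with tracer and compound were incubated 2 h, then given Nano-Glo substrate plus extracellular NanoLuc inhibitor for 3 min at room temperature.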

C481S mutant BTK = biological target: T2, C481S mutant BTK (Homo sapiens, UniProt Q06187, C481S); assay: BTK degradation in XLA cells overexpressing C481S mutant BTK (western blot); type: cell-based; details: 24 h
T2 construct: expressed in transfected cells; host or cells: XLA cells (gift from Dr. Woyach)
Protocol: XLA cells overexpressing wild-type BTK or mutant C481S BTK were plated at the same cell number and density as the above experiments and were treated with RC-1, IRC-1, or RNC-1 at the dose of 1.6, 8.0, 40, 200, and 1000 nM for 24 h. After completion of treatment, all the cells were collected and processed for western blot analysis.
(§1) The collected cells and spleen tissues were lysed in RIPA lysis buffer (50 mM Tris-HCl, pH 7.4, 150 mM NaCl, 1% NP-40, 0.5% sodium deoxycholate, 0.1% SDS) supplemented with Halt™ Protease and Phosphatase Inhibitor Cocktail (Thermo Fisher Scientific, Cat. No. PI78440) immediately before use. Lysates were centrifuged at 15,000 × g for 10 min at 4 °C and the supernatant was quantified for total protein concentration using the Pierce BCA Protein Assay (Thermo Fisher Scientific, Cat. No. 23225). Thirty micrograms of protein were loaded onto sodium dodecyl sulfate−polyacrylamide gel for electrophoresis (Bio-Rad) and transferred onto PVDF membranes (Millipore, Cat. No. IPVH00010). […] Imaging was performed using the ECL Prime chemiluminescent western blot detection reagents (GE Healthcare, Cat. No. RPN2232) by visualization of the blots to X-Ray film or with an Imager (Kindle Biosciences, Cat. No. D1001). All western blots were subsequently processed and quantified with Imager software. Protein level was normalized to β-actin or GAPDH loading controls.

[1] = tested on: BTK, pBTK, IKZF1, and IKZF3; assay: Degradation of BTK, pBTK, IKZF1 and IKZF3 in Mino cells (western blot); type: cell-based
Protocol: as §1

IKZF3 = assay: Splenic IKZF3 level in mice after single RC-1 injection (western blot); type: in vivo, ICR mice; details: for IKZF3 level, mean: Figure 5d, DMSO = 100; for IKZF3 quantification: Supplementary Figure 8, individual animals
Protocol: (§2) To investigate the protein degradation effect of RC-1 in vivo, mice were subjected to single RC-1 administration at the dose of 50 or 100 mg kg^−1 (i.p.) or seven once-daily RC-1 administration at the dose of 20 mg kg^−1 (i.p.) (n = 2–3). Twenty-four hours after the one-time RC-1 injection or 24 h after the 7th injection, mice were anesthetized with isoflurane and the whole spleen was dissected and stored at −80 °C for western blot analysis of protein level.
Supplementary Figure 8. Protein degradation by BTK PROTAC RC-1 in mouse spleen. ICR mice were subjected to single IP injection of RC-1 at the dose of 50 mg/kg (n = 4) or 100 mg/kg (n = 3) and spleens were harvested 24 h after injection. (a) The splenic p-BTK(Y233), BTK, IKZF1 and IKZF3 levels were measured with Western blot. (b). Quantification of protein levels shown in (a). Data are presented as mean values ± SEM.
Asterisks indicate that the differences between samples are statistically significant, using two-tailed, unpaired t- […]
test (* p < 0.05; significant).
(1 picture or pasted object on this page, not shown here)

BTK [2] = biological target: BTK (Homo sapiens, UniProt Q06187); assay: BTK degradation in MOLM-14 cells (western blot); type: cell-based; set-up: endogenous in cells; host or cells: MOLM-14; details: for BTK%: Figure 2c, DMSO = 100
BTK [3] = biological target: BTK (Mus musculus, UniProt P35991); assay: Pharmacodynamics: splenic BTK level in mice (western blot); type: in vivo, ICR mice; set-up: from tissue; host or cells: spleen of female ICR mice; details: for BTK level, mean: Figure 5d, DMSO = 100; for BTK quantification: Supplementary Figure 8, individual animals
Protocol: as §1, §2

Jeko-1 = assay: IC50 in MCL cell lines (Supplementary Table 2), Jeko-1; details: for Cell Viability (%): Jeko-1 cells, replicate wells
Maver-1 = assay: IC50 in MCL cell lines (Supplementary Table 2), Maver-1; details: for Cell Viability (%): Maver-1 cells, replicate wells

BTK (Mus musculus, UniProt P35991), sequence (P35991 whole entry): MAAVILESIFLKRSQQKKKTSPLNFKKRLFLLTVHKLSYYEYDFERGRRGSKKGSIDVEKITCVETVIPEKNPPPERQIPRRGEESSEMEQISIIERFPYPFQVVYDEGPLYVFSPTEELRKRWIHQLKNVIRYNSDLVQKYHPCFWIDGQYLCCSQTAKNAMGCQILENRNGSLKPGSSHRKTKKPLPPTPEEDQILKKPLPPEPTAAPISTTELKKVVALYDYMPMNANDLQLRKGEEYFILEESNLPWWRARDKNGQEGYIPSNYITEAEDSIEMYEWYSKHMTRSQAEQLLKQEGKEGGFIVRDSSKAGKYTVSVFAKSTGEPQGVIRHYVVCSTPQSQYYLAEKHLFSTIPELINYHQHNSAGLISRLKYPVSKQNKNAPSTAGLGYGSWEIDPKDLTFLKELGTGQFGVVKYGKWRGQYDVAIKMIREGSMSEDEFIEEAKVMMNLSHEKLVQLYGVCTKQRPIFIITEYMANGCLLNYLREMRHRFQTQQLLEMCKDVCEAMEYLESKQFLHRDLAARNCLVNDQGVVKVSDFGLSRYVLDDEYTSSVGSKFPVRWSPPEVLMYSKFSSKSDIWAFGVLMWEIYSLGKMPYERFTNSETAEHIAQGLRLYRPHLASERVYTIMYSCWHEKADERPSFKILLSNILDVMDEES
BTK (Homo sapiens, UniProt Q06187), sequence (Q06187 whole entry): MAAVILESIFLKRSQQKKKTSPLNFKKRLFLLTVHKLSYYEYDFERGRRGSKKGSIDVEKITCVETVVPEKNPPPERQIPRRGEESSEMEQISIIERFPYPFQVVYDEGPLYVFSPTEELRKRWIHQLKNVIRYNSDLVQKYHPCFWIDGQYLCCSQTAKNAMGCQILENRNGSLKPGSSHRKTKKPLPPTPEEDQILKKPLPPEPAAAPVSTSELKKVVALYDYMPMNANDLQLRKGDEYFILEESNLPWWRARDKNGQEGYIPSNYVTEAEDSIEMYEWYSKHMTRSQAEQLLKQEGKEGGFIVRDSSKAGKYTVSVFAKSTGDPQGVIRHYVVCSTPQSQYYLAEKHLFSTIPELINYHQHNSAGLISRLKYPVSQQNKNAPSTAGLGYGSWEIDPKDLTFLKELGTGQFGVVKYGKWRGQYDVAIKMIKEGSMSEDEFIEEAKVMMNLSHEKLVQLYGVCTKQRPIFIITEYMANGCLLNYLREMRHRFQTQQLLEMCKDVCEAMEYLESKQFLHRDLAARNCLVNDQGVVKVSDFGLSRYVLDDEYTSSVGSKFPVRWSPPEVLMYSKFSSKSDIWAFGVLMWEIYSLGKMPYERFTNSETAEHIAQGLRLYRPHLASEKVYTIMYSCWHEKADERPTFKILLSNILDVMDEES
T1 sequence (Q96SW2 whole entry, the tested form may be a part): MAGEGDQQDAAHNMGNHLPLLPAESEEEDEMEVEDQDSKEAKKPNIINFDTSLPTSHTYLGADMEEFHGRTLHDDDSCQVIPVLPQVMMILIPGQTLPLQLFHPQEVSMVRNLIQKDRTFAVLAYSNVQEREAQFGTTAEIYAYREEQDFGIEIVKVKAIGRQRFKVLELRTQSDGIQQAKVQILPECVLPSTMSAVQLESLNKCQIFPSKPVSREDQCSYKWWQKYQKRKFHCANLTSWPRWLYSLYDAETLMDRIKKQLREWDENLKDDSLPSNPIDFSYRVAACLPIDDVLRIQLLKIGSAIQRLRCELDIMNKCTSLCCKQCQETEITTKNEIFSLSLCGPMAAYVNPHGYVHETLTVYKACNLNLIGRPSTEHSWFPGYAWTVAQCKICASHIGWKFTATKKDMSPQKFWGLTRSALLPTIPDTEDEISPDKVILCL
T1 sequence (Q16531 whole entry partner, the tested form may be a part): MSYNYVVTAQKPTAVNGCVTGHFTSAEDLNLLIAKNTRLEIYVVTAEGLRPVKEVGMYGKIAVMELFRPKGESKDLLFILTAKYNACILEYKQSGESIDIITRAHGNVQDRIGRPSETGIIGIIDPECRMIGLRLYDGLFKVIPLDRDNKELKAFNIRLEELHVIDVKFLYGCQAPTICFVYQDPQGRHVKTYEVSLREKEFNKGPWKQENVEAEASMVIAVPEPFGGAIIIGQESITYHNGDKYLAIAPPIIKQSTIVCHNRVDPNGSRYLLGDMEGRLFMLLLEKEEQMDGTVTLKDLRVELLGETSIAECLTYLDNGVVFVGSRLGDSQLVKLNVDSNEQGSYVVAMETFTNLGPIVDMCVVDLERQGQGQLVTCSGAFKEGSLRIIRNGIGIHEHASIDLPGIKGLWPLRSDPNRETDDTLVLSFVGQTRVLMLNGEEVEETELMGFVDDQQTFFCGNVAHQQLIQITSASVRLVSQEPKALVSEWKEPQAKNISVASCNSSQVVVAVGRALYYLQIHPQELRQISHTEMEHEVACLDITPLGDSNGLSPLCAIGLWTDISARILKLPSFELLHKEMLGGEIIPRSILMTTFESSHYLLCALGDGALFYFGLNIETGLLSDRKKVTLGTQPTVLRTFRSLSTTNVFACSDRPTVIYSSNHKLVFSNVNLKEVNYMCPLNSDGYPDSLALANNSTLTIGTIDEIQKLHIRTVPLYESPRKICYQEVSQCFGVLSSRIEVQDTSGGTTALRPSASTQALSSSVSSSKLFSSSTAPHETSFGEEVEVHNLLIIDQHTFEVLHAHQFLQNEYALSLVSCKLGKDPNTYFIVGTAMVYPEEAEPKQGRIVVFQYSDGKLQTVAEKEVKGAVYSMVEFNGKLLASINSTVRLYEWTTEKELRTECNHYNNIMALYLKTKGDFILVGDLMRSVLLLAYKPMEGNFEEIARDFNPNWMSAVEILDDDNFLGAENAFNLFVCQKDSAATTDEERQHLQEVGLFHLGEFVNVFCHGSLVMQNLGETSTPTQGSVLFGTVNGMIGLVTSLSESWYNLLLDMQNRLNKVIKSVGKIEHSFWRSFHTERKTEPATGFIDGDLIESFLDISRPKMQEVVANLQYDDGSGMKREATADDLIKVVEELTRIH
T2 sequence (Q06187 whole entry C481S): as the sequence (Q06187 whole entry) above, with C481S counted along it

In the case of `CN(CCCNC(=O)CNc1cccc2c1C(=O)N(C1CCC(=O)NC1=O)C2=O)C(C)(C)C=C(C#N)C(=O)N1CCC[C@@H](n2nc(-c3ccc(Oc4ccccc4)cc3)c3c(N)ncnc32)C1` (stereo partly shown) [RC-1], the “Mino Cell Viability%” value (Mino cells; 1.00E-06 M) is reported as 28.3764% and 24.0469% and 29.6497% and 18.1013% and 27.4262%, the “Mino Cell Viability%” value (Mino cells; 1.60E-09 M) is reported as 86.471% and 91.0355% and 88.9002% and 84.3749% and 77.1755% and the “Mino Cell Viability%” value (Mino cells; 2.00E-07 M) is reported as 40.1501% and 37.7601% and 35.1644% and 26.339% and 31.6381%. For the same molecule, the “Mino Cell Viability%” value (Mino cells; 3.20E-10 M) was 96.9028% and 99.5475% and 70.4757% and 81.6714% and 61.4054%, the “Mino Cell Viability%” value (Mino cells; 4.00E-08 M) was 90.2127% and 74.3055% and 49.5631% and 47.134% and 61.6895% and the “Mino Cell Viability%” value (Mino cells; 5.00E-06 M) was 17.0239% and 17.5724% and 29.8456% and 19.8449% and 25.2419%. For the same molecule, the “Mino Cell Viability%” value (Mino cells; 8.00E-09 M) was 98.4014% and 91.3588% and 67.7918% and 72.9048% and 65.2157%, the IC50 (Mino cells; Homo sapiens, Mino cells, 72 h, Alamar Blue) was 0.08 µM and the “NanoBRET(%)” value (NanoLuc-CRBN fusion; 1.00E-05 M, triplicates) was 21.6334% and 26.3618%. For the same molecule, the “NanoBRET(%)” value (NanoLuc-CRBN fusion; 1.60E-08 M, triplicates) was 89.0253% and 93.1823% and 91.5749%, the “NanoBRET(%)” value (NanoLuc-CRBN fusion; 3.20E-09 M, triplicates) was 81.4353% and 98.6889% and the “NanoBRET(%)” value (NanoLuc-CRBN fusion; 4.00E-07 M, triplicates) was 23.5104% and 43.7578% and 36.9762%. For the same molecule, the “NanoBRET(%)” value (NanoLuc-CRBN fusion; 8.00E-08 M, triplicates) was 72.3946% and 83.8988% and 65.1002%, the IC50 (NanoLuc-CRBN fusion; HEK-293 cells, CRBN tracer 0.5 µM, triplicates, read-out: CRBN target engagement IC50,TE) was 0.25 µM and the “K′P,D (relative intracellular accumulation coefficient)” value (NanoLuc-CRBN fusion; Kd (CRBN)/IC50,TE (CRBN)) was 16.8. For the same molecule, the “BTK degradation (in words)” value (C481S mutant BTK) was “dose-dependent BTK degradation; also recorded: degrades both wild-type BTK and the C481S mutant with similar potency”, the “degradation of BTK, pBTK, IKZF1, IKZF3 (in words)” value [1] was “induced degradation of BTK, pBTK, IKZF1, and IKZF3; also recorded: can degrade not only BTK and phosphorylated BTK but also IKZF1 and IKZF3” and the “IKZF3 level, mean” value (IKZF3; 1 injection) was 34.6975. The “IKZF3 level, mean” value (IKZF3; 7 injections) was 73.2929, the IKZF3 quantification (IKZF3; RC-1 50 mg/kg, 50 mg/kg) was 18.4248 and 33.3032 and 114.952 and 16.6702 and the IKZF3 quantification (IKZF3; RC-1 100 mg/kg, 100 mg/kg) was 2.1 and 60.2254 and 21.7286. For the same molecule, the “Quantification anti-BTK / anti-β-actin (BTK level vs DMSO)” value (BTK [2]; Figure 2b, 8 nM, duplicates) was 63.6968 and 56.9893, the “Quantification anti-BTK / anti-β-actin (BTK level vs DMSO)” value (BTK [2]; Figure 2b, 40 nM, duplicates) was 41.0784 and 35.9122 and the “Quantification anti-BTK / anti-β-actin (BTK level vs DMSO)” value (BTK [2]; Figure 2b, 200 nM, duplicates) was 29.8182 and 40.565. The BTK% (BTK [2]; 1.6 nM, duplicates) was 93.8522% and 87.3729%, the BTK% (BTK [2]; 8 nM, duplicates) was 68.8086% and 49.2324% and the BTK% (BTK [2]; 200 nM, duplicates) was 29.085% and 28.987%. The BTK% (BTK [2]; 1000 nM, duplicates) was 33.1562% and 45.5509%, the “Quantification anti-BTK / anti-β-actin (BTK level vs DMSO)” value (BTK [2]; Figure 2d, DMSO = 100 (mean)) was 23.0985 and the “Degradation at 200 nM (percentage of BTK degradation)” value (BTK [2]; MOLM-14 cells, 200 nM, 24 h incubation) was 81%. The DC50 (BTK [2]; MOLM-14 cells, 24 h, western blot, read-out: DC50 (compound concentration inducing 50% of protein degradation)) was 0.0066 µM, the “BTK level reduction in the spleens” value (BTK [3]; 20 mg kg^−1 i.p., 7 daily injections, vs vehicle-treated mice) was ~ 50% and the “BTK level, mean” value (BTK [3]; 1 injection) was 58.8522. The “BTK level, mean” value (BTK [3]; 7 injections) was 59.7357, the BTK quantification (BTK [3]; RC-1 50 mg/kg, 50 mg/kg) was 56.2321 and 63.4217 and 82.4136 and 62.324 and the BTK quantification (BTK [3]; RC-1 100 mg/kg, 100 mg/kg) was 59.6665 and 43.7954 and 40.8615. The IC50 (Jeko-1; Jeko-1, triplicates) was 0.2 µM, the “Cell Viability (%)” value (Jeko-1; 1.25E-06 M) was 8.1% and 9.79% and 4.911% and the “Cell Viability (%)” value (Jeko-1; 1.56E-07 M) was 59.0193% and 84.765% and 42.1211%. The “Cell Viability (%)” value (Jeko-1; 2.50E-06 M) was 5.234% and 3.584% and 4.277%, the “Cell Viability (%)” value (Jeko-1; 3.13E-07 M) was 35.9177% and 48.9386% and 32.3116% and the “Cell Viability (%)” value (Jeko-1; 5.00E-06 M) was 6.285% and 4.711% and 5.303%. For the same molecule, the “Cell Viability (%)” value (Jeko-1; 6.25E-07 M) was 26.3007% and 22.6601% and 16.326%, the “Cell Viability (%)” value (Jeko-1; 7.81E-08 M) was 58.1018% and 72.8615% and 48.2775% and the IC50 (Maver-1; Maver-1, triplicates) was 3.3 µM. For the same molecule, the “Cell Viability (%)” value (Maver-1; 1.25E-06 M) was 72.3477% and 75.344% and 75.6032%, the “Cell Viability (%)” value (Maver-1; 1.56E-07 M) was 94.303% and 94.8872% and 90.9031% and the “Cell Viability (%)” value (Maver-1; 2.50E-06 M) was 56.7361% and 58.5739% and 54.2977%. For the same molecule, the “Cell Viability (%)” value (Maver-1; 3.13E-07 M) was 94.0011% and 92.8623% and 88.8158%, the “Cell Viability (%)” value (Maver-1; 5.00E-06 M) was 44.682% and 45.5221% and 44.0945% and the “Cell Viability (%)” value (Maver-1; 6.25E-07 M) was 91.7892% and 94.3523% and 87.1487%. For the same molecule, the “Cell Viability (%)” value (Maver-1; 7.81E-08 M) was 97.5389% and 95.4976% and 96.2656%.
